The target in series [1] is Voltage-dependent T-type calcium channel subunit alpha-1H (Homo sapiens, UniProt O95180). The format is functional.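 Further: channel activity triggered by adding a high calcium stimulation buffer.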
For series [2], the target named is T1, Cytochrome P450 3A4 (Homo sapiens, UniProt P08684).
The target in series [3] is Cytochrome P450 2D6 (Homo sapiens, UniProt P10635).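 Further: CYP2D6 member of a cytochrome P450 panel assay.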
Series [4] has as its target T2, Heat shock factor protein 1 (Mus musculus, UniProt P38532).
T2 sequence (P38532 whole entry): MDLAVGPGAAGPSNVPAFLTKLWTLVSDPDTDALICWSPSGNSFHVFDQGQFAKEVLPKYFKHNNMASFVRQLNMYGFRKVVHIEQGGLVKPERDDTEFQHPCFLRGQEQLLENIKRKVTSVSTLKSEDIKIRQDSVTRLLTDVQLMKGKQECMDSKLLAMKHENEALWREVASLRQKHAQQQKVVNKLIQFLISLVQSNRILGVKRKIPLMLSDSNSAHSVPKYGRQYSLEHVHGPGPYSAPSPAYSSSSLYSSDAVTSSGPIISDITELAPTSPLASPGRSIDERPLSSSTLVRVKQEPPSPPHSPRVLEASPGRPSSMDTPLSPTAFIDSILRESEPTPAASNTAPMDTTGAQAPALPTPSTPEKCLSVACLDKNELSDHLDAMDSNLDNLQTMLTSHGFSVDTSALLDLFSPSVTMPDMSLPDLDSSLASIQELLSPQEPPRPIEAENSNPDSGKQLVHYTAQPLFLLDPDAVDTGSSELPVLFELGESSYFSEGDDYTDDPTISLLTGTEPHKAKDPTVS
The series is described as follows: inhibition of MG132-induced HSE-luciferase signal, confirmation, cell-based, NIH3T3, luminescence, dose retest (AID 2382).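 Further: NIH3T3 fibroblasts with HSF1-driven luciferase reporter stressed by proteasome inhibitor MG132; luminescence from HSF1-driven luciferase expression after 8 hours of MG132 stress.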 It is filed as functional.

A short description of series [5]: cytotoxicity in MIN6 insulinoma cells, dose response, cytotoxicity control, cell-based, mouse insulinoma (AID 2122).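 Further: confirmatory high-throughput counterscreen run to flag cytotoxic compounds; mouse MIN-6 beta cells carrying an insulin promoter eGFP reporter.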 It is filed as functional.
The nature of series [6]: insulin promoter down-regulators in MIN6 cells, imaging, high-content screening, mouse beta cells (AID 1628). The format is functional.
The target in series [7] is Photoreceptor-specific nuclear receptor (Homo sapiens, UniProt Q9Y5X4). It is filed as functional, cell-based.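 Further: CHO-S cells with Gal4-NCOR and VP16-NR2E3 two-hybrid luciferase reporter.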
Series [8] deals with Cytochrome P450 2C9 (Homo sapiens, UniProt P11712).
Series [9] deals with Cytochrome P450 2C19 (Homo sapiens, UniProt P33261). The series is described as follows: Cytochrome panel assay with activity outcomes. Panel member name: p450-cyp2c19 Compounds with AC50 equal or less than 10 uM are considered active. The format is functional.
For series [10], the target named is T1, Cytochrome P450 3A4. The source holds these as a separate data set.
The test system of series [11] is INS1. The series is described as follows: beta cell apoptosis inhibitors, cytokine rescue, dose response, luminescence, retest (AID 449756).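 Further: cell death triggered by IL-1 beta plus TNF-alpha plus IFN-gamma mixture; protective hits raise ATP signal compared with cytokine alone wells.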 It is filed as functional, cell-based. Particulars: Rattus norvegicus.
In series [12] the target is T3, Lysine-specific demethylase 4A (Homo sapiens, UniProt O75164).
T3 sequence (O75164 whole entry): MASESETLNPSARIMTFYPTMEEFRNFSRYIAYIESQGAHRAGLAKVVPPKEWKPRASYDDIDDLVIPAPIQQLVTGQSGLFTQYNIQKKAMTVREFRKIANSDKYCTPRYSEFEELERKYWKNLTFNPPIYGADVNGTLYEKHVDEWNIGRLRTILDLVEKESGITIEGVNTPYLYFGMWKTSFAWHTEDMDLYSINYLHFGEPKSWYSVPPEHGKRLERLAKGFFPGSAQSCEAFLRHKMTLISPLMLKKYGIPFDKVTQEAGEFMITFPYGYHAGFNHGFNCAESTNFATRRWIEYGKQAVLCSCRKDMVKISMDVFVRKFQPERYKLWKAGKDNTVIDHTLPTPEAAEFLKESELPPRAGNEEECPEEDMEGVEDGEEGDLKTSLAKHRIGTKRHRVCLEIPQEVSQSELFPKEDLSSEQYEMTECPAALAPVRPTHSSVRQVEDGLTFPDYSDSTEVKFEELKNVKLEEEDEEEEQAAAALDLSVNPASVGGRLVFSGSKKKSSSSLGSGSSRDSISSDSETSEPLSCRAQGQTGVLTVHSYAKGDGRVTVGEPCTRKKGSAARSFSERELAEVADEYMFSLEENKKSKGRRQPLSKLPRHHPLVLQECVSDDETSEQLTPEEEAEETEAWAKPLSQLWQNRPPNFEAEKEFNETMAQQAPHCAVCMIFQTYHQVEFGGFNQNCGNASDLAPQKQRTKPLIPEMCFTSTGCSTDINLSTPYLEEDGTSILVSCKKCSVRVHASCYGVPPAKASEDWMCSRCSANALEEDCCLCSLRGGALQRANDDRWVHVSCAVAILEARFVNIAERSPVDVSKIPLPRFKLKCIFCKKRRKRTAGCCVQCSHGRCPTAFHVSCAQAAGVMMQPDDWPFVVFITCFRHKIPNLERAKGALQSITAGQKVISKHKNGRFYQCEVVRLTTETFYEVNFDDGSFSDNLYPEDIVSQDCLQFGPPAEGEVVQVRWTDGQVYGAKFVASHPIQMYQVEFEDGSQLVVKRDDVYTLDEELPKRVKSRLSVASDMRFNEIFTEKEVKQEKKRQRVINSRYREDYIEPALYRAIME
The series is described as follows: JMJD2A histone demethylase inhibitors, dose response, selectivity assay for GASC-1 inhibitor project, biochemical, DELFIA europium, cherry-picked samples (AID 488840).

For series [13], the target named is T4, Tyrosine-protein phosphatase non-receptor type 7 (Homo sapiens, UniProt P35236).
T4 sequence (P35236 whole entry): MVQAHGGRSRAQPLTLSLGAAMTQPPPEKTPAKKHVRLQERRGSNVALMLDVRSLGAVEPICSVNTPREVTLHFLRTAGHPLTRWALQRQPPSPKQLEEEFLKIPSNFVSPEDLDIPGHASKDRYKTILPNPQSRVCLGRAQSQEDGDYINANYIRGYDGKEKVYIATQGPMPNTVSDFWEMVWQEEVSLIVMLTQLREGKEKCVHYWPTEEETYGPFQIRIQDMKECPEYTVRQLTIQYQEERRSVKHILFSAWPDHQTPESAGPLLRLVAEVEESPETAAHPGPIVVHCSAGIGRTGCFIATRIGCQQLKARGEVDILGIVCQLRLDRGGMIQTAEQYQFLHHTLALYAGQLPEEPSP
The series is described as follows: HePTP (PTPN7) phosphatase inhibitor potency, SAR follow-up, biochemical, set 2 (AID 449736). It is filed as functional.

The target of series [14] is T5, Tyrosine-protein phosphatase non-receptor type 22 (Homo sapiens, UniProt Q9Y2R2).
T5 sequence (Q9Y2R2 whole entry): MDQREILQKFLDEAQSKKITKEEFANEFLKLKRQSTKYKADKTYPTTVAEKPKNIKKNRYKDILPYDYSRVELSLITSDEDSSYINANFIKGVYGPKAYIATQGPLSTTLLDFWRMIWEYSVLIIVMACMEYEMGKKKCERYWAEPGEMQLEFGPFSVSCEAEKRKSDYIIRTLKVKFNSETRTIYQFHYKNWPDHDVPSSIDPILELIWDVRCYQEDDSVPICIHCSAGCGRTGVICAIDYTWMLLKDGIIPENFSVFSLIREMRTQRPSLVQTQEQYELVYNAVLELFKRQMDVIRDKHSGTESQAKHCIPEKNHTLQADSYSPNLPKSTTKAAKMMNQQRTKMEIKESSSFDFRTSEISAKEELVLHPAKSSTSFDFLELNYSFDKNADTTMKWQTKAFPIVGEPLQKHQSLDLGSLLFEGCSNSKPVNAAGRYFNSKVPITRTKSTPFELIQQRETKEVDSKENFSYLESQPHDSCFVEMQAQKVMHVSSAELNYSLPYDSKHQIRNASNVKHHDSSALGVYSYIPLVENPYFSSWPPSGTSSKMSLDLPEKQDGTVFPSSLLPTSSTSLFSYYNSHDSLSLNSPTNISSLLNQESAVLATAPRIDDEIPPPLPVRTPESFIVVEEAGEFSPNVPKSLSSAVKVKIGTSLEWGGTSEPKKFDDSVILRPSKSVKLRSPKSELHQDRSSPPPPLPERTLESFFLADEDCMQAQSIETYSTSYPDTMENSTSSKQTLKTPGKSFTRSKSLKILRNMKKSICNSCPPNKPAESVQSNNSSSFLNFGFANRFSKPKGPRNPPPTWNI
The series is described as follows: SAR LYP1 Fluorescent Assay using pCAP substrate for In Vitro dose response studies - Set 2. [Related pubchem assays (depositor defined):AID1779, AID1784, AID2135, AID449727]. The format is functional.

In series [15] the target is T6, Tyrosine-protein phosphatase non-receptor type 12 (Homo sapiens, UniProt Q05209).
T6 sequence (Q05209 whole entry): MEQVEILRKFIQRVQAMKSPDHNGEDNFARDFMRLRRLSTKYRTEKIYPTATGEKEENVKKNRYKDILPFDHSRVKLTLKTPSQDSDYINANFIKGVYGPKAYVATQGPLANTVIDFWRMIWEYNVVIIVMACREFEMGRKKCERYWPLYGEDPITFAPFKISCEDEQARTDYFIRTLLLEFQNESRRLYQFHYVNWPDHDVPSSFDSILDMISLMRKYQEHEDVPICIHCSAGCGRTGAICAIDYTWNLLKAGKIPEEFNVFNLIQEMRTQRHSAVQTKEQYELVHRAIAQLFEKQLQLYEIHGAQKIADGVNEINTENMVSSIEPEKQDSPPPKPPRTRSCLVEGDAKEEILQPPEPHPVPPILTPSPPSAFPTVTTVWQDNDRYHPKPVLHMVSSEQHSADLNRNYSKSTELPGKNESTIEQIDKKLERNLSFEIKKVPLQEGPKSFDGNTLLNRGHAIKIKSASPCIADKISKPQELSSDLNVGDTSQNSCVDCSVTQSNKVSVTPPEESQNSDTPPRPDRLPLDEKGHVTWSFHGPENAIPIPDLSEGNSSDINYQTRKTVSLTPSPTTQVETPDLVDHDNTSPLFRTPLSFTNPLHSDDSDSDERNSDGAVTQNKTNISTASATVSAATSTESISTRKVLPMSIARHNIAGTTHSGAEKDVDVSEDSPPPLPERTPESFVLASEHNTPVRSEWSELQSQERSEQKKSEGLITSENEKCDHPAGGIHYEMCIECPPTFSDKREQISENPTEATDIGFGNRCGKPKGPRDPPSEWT
The series is described as follows: SAR Selectivity Analysis of small molecule inhibitors of PEST using pCAP in a fluorescence assay. [Related pubchem assays (depositor defined):AID1779, AID1784, AID2135]. It is filed as functional.

Series [16] has as its target T5, Tyrosine-protein phosphatase non-receptor type 22. The series is described as follows: LYP (PTPN22) phosphatase inhibitor potency, SAR follow-up, biochemical, pCAP fluorogenic substrate, fluorescence, set 3 (AID 449727). It is filed as functional.
For series [17] the target is unchanged. The series is described as follows: SAR LYP1 Fluorescent Assay using OMFP substrate for In Vitro dose response studies - Set 2. [Related pubchem assays (depositor defined):AID1779, AID1784, AID2140, AID449726, AID488869]. The format is functional.
Series [18] has the same target. The series is described as follows: SAR LYP1 Fluorescent Assay using OMFP substrate for In Vitro dose response studies - Set 3. [Related pubchem assays (depositor defined):AID1779, AID1784, AID2140, AID2686]. It is filed as functional.

The values below come from ChEMBL document CHEMBL1201862, “PubChem BioAssay data set” (2004).

As a reminder, the EC50 is the concentration that produces a half-maximal response. As usually defined, the AC50 is the concentration at which the activity in the assay is half-maximal. One may read the IC50 as the point on the concentration scale where inhibition reaches its midpoint.

Each structure is given as a SMILES string. Calls of active or inactive are those of the source.

T1 sequence (P08684 whole entry): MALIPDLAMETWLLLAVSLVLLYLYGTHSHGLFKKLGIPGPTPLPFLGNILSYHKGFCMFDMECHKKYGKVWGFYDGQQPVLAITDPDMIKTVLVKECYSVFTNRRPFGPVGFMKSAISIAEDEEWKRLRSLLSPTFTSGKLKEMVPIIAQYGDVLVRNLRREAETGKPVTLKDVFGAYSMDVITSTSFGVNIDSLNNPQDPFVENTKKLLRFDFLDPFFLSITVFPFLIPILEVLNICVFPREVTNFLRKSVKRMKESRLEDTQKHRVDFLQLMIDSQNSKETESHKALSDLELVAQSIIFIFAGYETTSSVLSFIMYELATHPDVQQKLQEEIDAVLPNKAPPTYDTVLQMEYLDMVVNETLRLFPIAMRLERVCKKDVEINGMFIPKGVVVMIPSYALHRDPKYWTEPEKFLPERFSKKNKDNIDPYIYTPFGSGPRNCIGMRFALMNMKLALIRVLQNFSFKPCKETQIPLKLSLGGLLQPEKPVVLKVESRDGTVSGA
Chain of Cytochrome P450 2D6 (P10635 whole entry): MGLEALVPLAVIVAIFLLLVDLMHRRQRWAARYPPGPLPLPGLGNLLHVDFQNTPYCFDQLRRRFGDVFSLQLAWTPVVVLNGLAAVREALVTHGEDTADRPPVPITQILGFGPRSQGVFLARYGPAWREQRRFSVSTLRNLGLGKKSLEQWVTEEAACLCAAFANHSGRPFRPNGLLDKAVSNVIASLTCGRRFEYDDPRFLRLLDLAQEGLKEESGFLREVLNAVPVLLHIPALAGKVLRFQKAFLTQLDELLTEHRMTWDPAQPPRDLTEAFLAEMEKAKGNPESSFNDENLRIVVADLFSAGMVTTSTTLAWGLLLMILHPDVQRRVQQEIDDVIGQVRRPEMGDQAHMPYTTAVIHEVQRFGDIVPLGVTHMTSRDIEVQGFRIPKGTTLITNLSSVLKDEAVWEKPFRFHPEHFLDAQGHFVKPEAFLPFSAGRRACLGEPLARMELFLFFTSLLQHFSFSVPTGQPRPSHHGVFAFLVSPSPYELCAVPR
Chain of Photoreceptor-specific nuclear receptor (Q9Y5X4 whole entry, the tested form may be a part): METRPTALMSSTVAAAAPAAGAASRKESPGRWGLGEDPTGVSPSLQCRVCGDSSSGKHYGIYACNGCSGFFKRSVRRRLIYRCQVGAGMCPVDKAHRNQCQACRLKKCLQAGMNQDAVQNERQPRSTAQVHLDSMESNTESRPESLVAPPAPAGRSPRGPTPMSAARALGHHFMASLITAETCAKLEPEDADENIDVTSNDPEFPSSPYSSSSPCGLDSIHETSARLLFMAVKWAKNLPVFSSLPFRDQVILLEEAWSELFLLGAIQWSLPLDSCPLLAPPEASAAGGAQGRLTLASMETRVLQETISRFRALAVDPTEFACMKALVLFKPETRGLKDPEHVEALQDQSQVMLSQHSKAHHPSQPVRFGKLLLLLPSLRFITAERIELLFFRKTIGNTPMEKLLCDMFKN
Chain of Voltage-dependent T-type calcium channel subunit alpha-1H (O95180 whole entry): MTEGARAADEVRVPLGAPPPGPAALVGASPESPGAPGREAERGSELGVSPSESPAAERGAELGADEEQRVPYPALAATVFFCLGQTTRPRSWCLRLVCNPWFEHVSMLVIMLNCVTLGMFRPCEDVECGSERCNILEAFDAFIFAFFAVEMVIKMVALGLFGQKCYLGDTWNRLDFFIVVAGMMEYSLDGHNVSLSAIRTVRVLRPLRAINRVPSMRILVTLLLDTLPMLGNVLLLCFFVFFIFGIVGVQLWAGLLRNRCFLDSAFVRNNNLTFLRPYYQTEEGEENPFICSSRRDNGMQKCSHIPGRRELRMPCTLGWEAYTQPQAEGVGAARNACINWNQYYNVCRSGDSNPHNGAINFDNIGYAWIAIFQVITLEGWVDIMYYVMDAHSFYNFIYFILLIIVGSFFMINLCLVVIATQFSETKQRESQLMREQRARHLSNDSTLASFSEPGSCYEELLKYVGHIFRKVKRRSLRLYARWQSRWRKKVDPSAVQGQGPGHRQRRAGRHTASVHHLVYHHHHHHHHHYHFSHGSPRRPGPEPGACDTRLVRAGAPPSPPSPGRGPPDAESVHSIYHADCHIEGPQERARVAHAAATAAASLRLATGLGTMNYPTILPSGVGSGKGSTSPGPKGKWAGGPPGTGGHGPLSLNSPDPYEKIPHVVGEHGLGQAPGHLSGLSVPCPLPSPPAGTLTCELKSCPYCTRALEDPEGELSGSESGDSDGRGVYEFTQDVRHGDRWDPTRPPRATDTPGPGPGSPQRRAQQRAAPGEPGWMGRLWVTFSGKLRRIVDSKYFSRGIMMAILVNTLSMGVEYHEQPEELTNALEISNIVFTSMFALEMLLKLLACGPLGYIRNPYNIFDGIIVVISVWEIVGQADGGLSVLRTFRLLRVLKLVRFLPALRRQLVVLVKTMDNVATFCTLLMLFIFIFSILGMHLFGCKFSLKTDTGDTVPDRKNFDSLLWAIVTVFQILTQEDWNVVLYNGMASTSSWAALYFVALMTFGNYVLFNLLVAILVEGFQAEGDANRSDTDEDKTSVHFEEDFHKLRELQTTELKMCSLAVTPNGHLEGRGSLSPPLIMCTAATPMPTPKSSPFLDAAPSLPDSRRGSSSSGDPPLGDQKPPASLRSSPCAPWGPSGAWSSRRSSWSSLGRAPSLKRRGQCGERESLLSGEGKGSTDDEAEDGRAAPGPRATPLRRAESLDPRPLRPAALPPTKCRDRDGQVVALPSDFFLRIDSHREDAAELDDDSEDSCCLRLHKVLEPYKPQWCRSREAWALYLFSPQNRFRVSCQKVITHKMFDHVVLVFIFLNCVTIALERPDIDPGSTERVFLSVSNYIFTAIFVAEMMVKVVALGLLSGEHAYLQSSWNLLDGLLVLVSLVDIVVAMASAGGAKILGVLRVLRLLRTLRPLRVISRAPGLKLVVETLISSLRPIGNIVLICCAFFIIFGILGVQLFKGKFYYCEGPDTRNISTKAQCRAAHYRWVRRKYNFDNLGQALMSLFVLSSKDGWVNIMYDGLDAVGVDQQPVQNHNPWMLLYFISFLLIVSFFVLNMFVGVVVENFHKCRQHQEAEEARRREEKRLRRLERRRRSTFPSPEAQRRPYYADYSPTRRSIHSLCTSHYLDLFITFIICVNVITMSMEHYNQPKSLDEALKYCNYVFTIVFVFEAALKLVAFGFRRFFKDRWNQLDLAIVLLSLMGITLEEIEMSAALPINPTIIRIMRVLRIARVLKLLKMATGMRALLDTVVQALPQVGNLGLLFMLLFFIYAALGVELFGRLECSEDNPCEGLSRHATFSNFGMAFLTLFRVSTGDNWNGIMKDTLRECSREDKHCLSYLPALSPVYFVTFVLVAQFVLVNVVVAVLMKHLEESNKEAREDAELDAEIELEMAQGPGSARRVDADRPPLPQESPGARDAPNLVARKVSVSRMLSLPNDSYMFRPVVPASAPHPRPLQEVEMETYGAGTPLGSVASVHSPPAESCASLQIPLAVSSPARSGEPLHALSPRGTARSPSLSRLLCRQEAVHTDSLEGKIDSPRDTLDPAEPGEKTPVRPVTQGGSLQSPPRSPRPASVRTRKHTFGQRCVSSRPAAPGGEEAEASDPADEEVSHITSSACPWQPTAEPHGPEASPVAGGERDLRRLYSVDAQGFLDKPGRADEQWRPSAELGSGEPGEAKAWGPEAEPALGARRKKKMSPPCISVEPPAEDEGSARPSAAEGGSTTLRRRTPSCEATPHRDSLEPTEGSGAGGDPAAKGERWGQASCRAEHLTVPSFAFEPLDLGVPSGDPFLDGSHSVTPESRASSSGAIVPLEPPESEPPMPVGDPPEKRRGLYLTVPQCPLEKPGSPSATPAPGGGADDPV
Chain of Cytochrome P450 2C9 (P11712 whole entry): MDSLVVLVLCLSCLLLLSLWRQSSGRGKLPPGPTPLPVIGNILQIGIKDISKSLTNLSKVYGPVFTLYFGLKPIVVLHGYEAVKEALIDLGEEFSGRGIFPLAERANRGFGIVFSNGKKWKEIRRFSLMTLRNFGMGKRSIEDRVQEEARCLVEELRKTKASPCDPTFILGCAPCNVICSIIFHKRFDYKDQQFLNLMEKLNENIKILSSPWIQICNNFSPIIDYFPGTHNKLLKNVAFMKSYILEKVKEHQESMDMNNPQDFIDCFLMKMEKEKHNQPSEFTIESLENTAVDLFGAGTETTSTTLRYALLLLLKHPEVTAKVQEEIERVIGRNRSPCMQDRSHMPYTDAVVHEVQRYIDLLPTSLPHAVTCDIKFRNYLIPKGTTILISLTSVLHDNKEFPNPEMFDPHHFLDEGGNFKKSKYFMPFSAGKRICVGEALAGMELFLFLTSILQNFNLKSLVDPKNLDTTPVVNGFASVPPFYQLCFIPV
Chain of Cytochrome P450 2C19 (P33261 whole entry): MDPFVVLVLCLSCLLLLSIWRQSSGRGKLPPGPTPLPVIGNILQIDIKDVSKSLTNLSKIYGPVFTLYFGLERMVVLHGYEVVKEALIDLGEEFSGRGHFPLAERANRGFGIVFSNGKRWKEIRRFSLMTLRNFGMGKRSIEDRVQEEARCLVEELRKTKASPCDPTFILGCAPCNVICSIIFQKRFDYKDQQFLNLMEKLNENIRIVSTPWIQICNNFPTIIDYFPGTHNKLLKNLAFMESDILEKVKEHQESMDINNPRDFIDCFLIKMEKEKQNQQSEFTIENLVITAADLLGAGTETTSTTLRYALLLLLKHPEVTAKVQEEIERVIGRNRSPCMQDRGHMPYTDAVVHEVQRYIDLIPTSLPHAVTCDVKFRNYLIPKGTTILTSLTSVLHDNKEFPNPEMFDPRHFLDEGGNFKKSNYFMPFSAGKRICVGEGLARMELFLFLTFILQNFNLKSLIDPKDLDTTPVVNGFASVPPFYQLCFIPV

Take `O=S(=O)(Cc1cc(Oc2ccccc2)nc(-c2ccccc2)n1)c1ccccc1`: the EC50 in [1] was 19.2 µM (active); in [4] it was > 195 µM (not active). Also, the AC50 entry in [2] and in series [3] was “inconclusive” throughout.
`Cc1nc2ncnn2c(N2CCN(c3cccc(C(F)(F)F)c3)CC2)c1C`: the IC50 in [5] was 3.77 µM (active); in series [6], 2.94 µM (active); in series [7] it was 0.838 µM (active).
With `CC1(C)[C@@H]2CC[C@@](C)(C2)[C@H]1OC(=O)c1ccccc1C(=O)O`, the AC50 in series [8] was 3.16 µM (inconclusive); in series [9] it was “inconclusive”; in [3] it was “inconclusive”; in series [10], 3.98 µM (inconclusive).
For the molecule `O=C(COc1ccc2ccccc2c1)N1CCN(Cc2c[nH]c3ccccc23)CC1`, the IC50 in series [5] is 3.26 µM (active); in series [6] it was 4.5 µM (active). For the same molecule, in series [11], the AC50 was 2.58 µM (active).
On to `COc1cc2c(cc1OC)C1=C(C#N)COCN1CC2`, for which, in [12], the concentration at half-maximal activity (AC50) is 0.644 µM (active).
For the molecule `C/C(=N/NC(=O)c1ccccc1)c1ccc(OCC(=O)O)cc1`, the IC50 in series [13], in series [14], in series [15], in series [16], in series [17] and in series [18] was > 100 µM (inactive) in each case.
